Experimental data reported in patent publication US20250000841A1, “Administration of Resiniferatoxin For Treatment of Prostate Cancer” (Sorrento Therapeutics, Inc., priority 2021, published 2025).

Tests used:
[1] = tested on: human prostate cancer cell line DU145; test: proliferation assay, prostate cancer cell line DU145; type: cell-based; details: DU145 cells cultured with varying amounts of RTX, FIG. 2C
Description: (§1) Proliferation measurements were normalized to an untreated control.

[2] = tested on: human DU145 prostate carcinoma xenograft tumor tissue; test: H&E staining and immunofluorescence of dissected xenograft tumor tissues; type: in vivo, mouse; details: immunofluorescence of tumor tissue, FIG. 3C
Protocol: (§2) FIGS. 3A, 3B and 3C show RTX inhibits prostate carcinoma progression in a cytostatic manner. […] RTX was administered locally (peritumorally) every other day at the indicated dose starting at 28 days after engraftment. The cytostatic activity appeared to be dose-independent in the tested range of 0.1-1 μg/dose. […] Scale, 100 μm. CD31+ blood vessel length and cleaved caspase 3 levels (expressed as median fluorescence intensity, MFI) are quantified in FIG. 3C.
Dissected tumor tissues were assessed by H&E staining and by immunofluorescence for CD31 (tumor vessel marker), DRAQ7 (nuclear marker), and cleaved caspase 3 (apoptotic cell maker). […] (FIG. 3B, upper row). […] (FIG. 3B, middle row).

[3] = tested on: tumor associated inflammatory cytokines (IL-6, IFNγ); test: cytokine array of xenograft tumor tissue homogenates; type: in vivo, mouse
Description: Reduced IL-6 expression in a dose-dependent manner is shown magnified (FIG. 4A).
Some studies of RTX have reported a potential to induce neurologic inflammatory responses. […] Tumor tissue homogenate samples from mouse xenograft tumor models described in Example B were taken at necroptic endpoint and analyzed for tumor associated inflammatory cytokine levels using a cytokine array (FIG. 4A).

[4] = tested on: human DU145 prostate carcinoma cells engrafted s.c.; test: mouse xenograft tumor model, tumor volume over time; type: in vivo; details: 0.1, 0.5 and 1 μg/dose, local (peritumoral) every other day from day 28 after engraftment, FIG. 3A
Protocol: as §2

[5] = tested on: human prostate cancer cell line LNCaP; test: proliferation assay, prostate cancer cell line LNCaP; type: cell-based; details: LNCaP cells cultured with varying amounts of RTX, FIG. 2C
Description: as §1

C=C(C)[C@]12C[C@@H](C)[C@@]34O[C@](Cc5ccccc5)(O[C@@H]1[C@@H]3C=C(COC(=O)Cc1ccc(O)c(OC)c1)C[C@]1(O)C(=O)C(C)=C[C@@H]41)O2 [RTX, Resiniferatoxin]
proliferation (normalized to untreated control) [1]: dose-dependent decreases in proliferation | tumor cell apoptosis (cleaved caspase 3 staining) ([2]; FIG. 3B lower row): tumor cell apoptosis increased | CD31+ tumor vasculature ([2]; FIG. 3B middle row): decreased contiguous CD31+ stained structures | Cytokine Release Syndrome (inflammatory cytokine expression) ([3]; tumor homogenates taken at necroptic endpoint, FIG. 4A): no indication of Cytokine Release Syndrome (CRS) | IFNγ expression ([3]; tumor homogenates, cytokine array): did not induce elevated expression of IFNγ | IL-6 expression ([3]; tumor homogenates, higher RTX doses, FIG. 4A-C): reduced expression | cytostatic efficacy (tumor volume) [4]: potent cytostatic efficacy in a dose-independent manner | proliferation (normalized to untreated control) [5]: dose-dependent decreases in proliferation
